According to PMC8982266 (Journal of medicinal chemistry, 2015):
pIC50: −log10 of the molar value.

Tests used:
[1] = system: human red blood cells (hRBCs)
[2] = system: P. aeruginosa clinical isolates; assay: Growth with efflux inhibitor reserpine; type: cell-based, Pseudomonas aeruginosa; conditions: P. aeruginosa isolate 1420
MRSA cells = assay: Time kill assay; type: cell-based, Staphylococcus aureus
E. cloacae [3] = type: cell-based; conditions: 8 passages
[4] = system: Staphylococcus aureus biofilm; assay: Minimum biofilm eradication concentration; type: cell-based; conditions: S. aureus biofilm; purified compounds
K. pneumoniae = assay: Serial passage resistance assay; type: cell-based, Klebsiella pneumoniae; conditions: 8 passages
Pseudomonas aeruginosa = assay: MIC micro broth dilution assay; type: cell-based; conditions: for MIC: P. aeruginosa, purified compounds; for concentration inhibiting growth of 90% of isolates: panel of clinical P. aeruginosa isolates
[5] = system: Enterococcus faecium biofilm; assay: Minimum biofilm eradication concentration; type: cell-based; conditions: E. faecium biofilm; purified compounds
A. baumannii = assay: Serial passage resistance assay; type: cell-based, Acinetobacter baumannii; conditions: 8 passages
[6] = system: Pseudomonas aeruginosa biofilm; assay: Minimum biofilm eradication concentration; type: cell-based; conditions: P. aeruginosa biofilm; purified compounds
E. cloacae [7] = assay: MIC micro broth dilution assay; type: cell-based; conditions: for MIC: E. cloacae, purified compounds; for concentration inhibiting growth of 90% of isolates: panel of clinical E. cloacae isolates
E. cloacae strain 1446 = assay: Growth with efflux inhibitor reserpine; type: cell-based; conditions: with 100 μM of reserpine
[8] = system: Klebsiella pneumoniae biofilm; assay: Minimum biofilm eradication concentration; type: cell-based; conditions: K. pneumoniae biofilm; purified compounds
S. aureus = assay: Serial passage resistance assay; type: cell-based, Staphylococcus aureus; conditions: 8 passages, concentration doubled each day
Klebsiella pneumoniae = assay: MIC micro broth dilution assay; type: cell-based; conditions: for MIC: K. pneumoniae, purified compounds; for concentration inhibiting growth of 90% of isolates: panel of clinical K. pneumoniae isolates
Staphylococcus aureus = assay: MIC micro broth dilution assay; type: cell-based; conditions: S. aureus; purified compounds
[9] = system: Staphylococcus aureus (USA300 strain FPR3757); assay: Murine model of lethal peritonitis; type: in vivo; conditions: 2xMIC, I.M., 1h post-infection; six mice per group
Enterococcus faecium = assay: MIC micro broth dilution assay; type: cell-based; conditions: E. faecium; purified compounds
human A549 cells = assay: Cytotoxicity MTT assay; type: cell-based; conditions: for pIC50: read-out: IC50 A549, toxicity towards human A549 cells, MTT, 48 hours
ESKAPE pathogens = assay: MIC micro broth dilution assay, all six species together; type: cell-based
Acinetobacter baumannii = assay: MIC micro broth dilution assay; type: cell-based; conditions: A. baumannii; purified compounds
E. cloacae biofilm = assay: Minimum biofilm eradication concentration; type: cell-based; conditions: purified compounds
[10] = system: Acinetobacter baumannii biofilm; assay: Minimum biofilm eradication concentration; type: cell-based; conditions: A. baumannii biofilm; purified compounds
P. aeruginosa = type: cell-based, Pseudomonas aeruginosa; conditions: 8 passages
[11] = system: K. pneumoniae strain 1441; assay: Growth with efflux inhibitor reserpine; type: cell-based, Klebsiella pneumoniae; conditions: with 100 μM of reserpine

Compound | MBEC50 [4] [µM] | MIC (Pseudomonas aeruginosa) [µM] | concentration inhibiting growth of 90% of isolates (Pseudomonas aeruginosa) [µM] | MBEC50 [6] [µM] | MIC (E. cloacae [7]) [µM] | concentration inhibiting growth of 90% of isolates (E. cloacae [7]) [µM] | MBEC50 [8] [µM] | fold increase in MIC after serial passage (S. aureus) | MIC (Klebsiella pneumoniae) [µM] | concentration inhibiting growth of 90% of isolates (Klebsiella pneumoniae) [µM] | MIC (Staphylococcus aureus) [µM] | survival of infected mice over 5 days [9] | MIC (Enterococcus faecium) [µM] | pIC50 (human A549 cells) | concentration with antibacterial activity against all 6 species (ESKAPE pathogens) [µM] | MIC (Acinetobacter baumannii) [µM] | MBEC50 (E. cloacae biofilm) [µM] | MBEC50 [10] [µM] | further results
Triton-X100 |  |  |  |  |  |  |  |  |  |  |  |  |  |  |  |  |  |  | hemolysis, positive control [1]: 100%
COC(=O)[C@H]1[C@H]2C[C@@H]3c4[nH]c5cc(OC)ccc5c4CCN3C[C@H]2C[C@@H](OC(=O)c2cc(OC)c(OC)c(OC)c2)[C@@H]1OC [reserpine, reference compound] |  |  |  |  |  |  |  |  |  |  |  |  |  |  |  |  |  |  | effect on growth, reserpine alone ([2]; 100 μM of reserpine): no effect
lysostaphin: a S. aureus specific lytic agent, positive control |  |  |  |  |  |  |  |  |  |  |  |  |  |  |  |  |  |  | lysis of MRSA cells (MRSA cells; within 10 minutes of exposure, 4 μM lysostaphin): > 50%
(S)-4-(cyclohexylmethyl)-3-hexyl-1-(4-((S)-2-imino-3-(3-(trifluoromethyl)phenethyl)imidazolidin-4-yl)butyl)imidazolidin-2-imine [compound 7] | 4.4 | 1.5 | 10 | 46 | 1.5 | 2 | 4.8 | four-fold | 1.5 | 5 | 1.5 | 1 mouse lost on each of days 2 and 4 | 1.5 | 4.18 | < 2 | 1.5 | 15 | 13 | fold increase in MIC after serial passage (E. cloacae [3]): ≤ 8 fold; fold increase in MIC after serial passage (K. pneumoniae): ≤ 8 fold; MBEC50 [5]: 26 µM; fold increase in MIC after serial passage (A. baumannii): ≤ 8 fold; effect on growth, compound in combination with reserpine (E. cloacae strain 1446): complete inhibition of growth; A549 recovery (human A549 cells; above 45 μM, at concentrations up to 225 μM): ≥ 33%; A549 recovery (human A549 cells; at 45 μM): > 60%
(S)-4-butyl-3-hexyl-1-(4-((S)-2-imino-3-(3-(trifluoromethyl)phenethyl)imidazolidin-4-yl)butyl)imidazolidin-2-imine [compound 1] | 14 | 1.6 | 10 | 20 | 1.6 | 10 | 7.0 | two-fold | 1.6 | 10 | 1.6 | all mice survived | 1.6 | 3.79 | < 2 | 1.6 | 13 | 15 | MBEC50 [5]: 39 µM; effect on growth, compound combined with reserpine ([2]; 2 μM compound + 100 μM reserpine): strongly inhibited growth; effect on growth, compound alone ([2]; 2 μM of compound, no reserpine): no effect
benzalkonium chloride [reference compound] |  |  |  |  |  |  |  |  |  |  |  |  |  |  |  |  |  |  | cells recovered / surviving exposure (optical density relative to start) (MRSA cells; MRSA, 2 h, 2.0% SDS, 0.001% benzalkonium chloride, 0.001% benzethonium chloride): 29%
(S)-1-(4-((S)-3-(4-cyclohexylbutyl)-2-iminoimidazolidin-4-yl)butyl)-4-(cyclohexylmethyl)-3-hexylimidazolidin-2-imine [compound 16] | 7.6 | 1.6 | 5 | 34 | 1.6 | 2 | 6.3 | 16 fold | 1.6 | 5 | 1.6 | only a single mouse succumbing to infection after the first day | 1.6 | < 3.65 | < 2 | 1.6 | 13 | 14 | fold increase in MIC after serial passage (E. cloacae [3]): ≤ 8 fold; fold increase in MIC after serial passage (K. pneumoniae): ≤ 8 fold; fold increase in MIC after serial passage (P. aeruginosa): 8 fold; fold increase in MIC after serial passage (A. baumannii): ≤ 8 fold; effect on growth, compound in combination with reserpine [11]: complete inhibition of growth; A549 recovery (human A549 cells; at concentrations up to 100 μM): > 65%
CCCC[C@H]1CN(CCCC[C@H]2CNC(=N)N2CCc2cccc(C(F)(F)F)c2)C(=N)N1CCCCC1CCCCC1 [compound 2, (S)-4-butyl-3-(4-cyclohexylbutyl)-1-(4-((S)-2-imino-3-(3-(trifluoromethyl)phenethyl)imidazolidin-4-yl)butyl)imidazolidin-2-imine] |  |  | 5 |  |  | 5 |  | two-fold |  | 5 |  | only a single mouse succumbing to infection after the first day |  |  | < 2 |  |  |  | 
